Patent US20220323383A1, “SMALL-MOLECULAR ADJUVANTS AND IMPLEMENTATIONS THEREOF” (JAWAHARLAL NEHRU CENTRE FOR ADVANCED SCIENTIFIC RESEARCH, priority 2019, published 2022)

How the values were obtained:
Format in all cases: cell-based
A. baumannii R674 [1] = assay: Chequerboard combination efficacy of adjuvant with antibiotics
Experimental: (§1) All the solvents were of reagent grade, which were distilled and dried before its use. All the reagents were purchased from Sigma-Aldrich, Alfa-Aesar, S.D. Fine, Avra and Spectrochem, and were used without further purification. Analytical thin layer chromatography (TLC) was performed on E. Merck TLC plates pre-coated with silica gel 60 F254 and visualization was carried out using UV light and Iodine. Column chromatography was performed on silica gel (60-120 mesh) using different ratio of chloroform and methanol solvent system. Nuclear magnetic resonance spectra were recorded on Bruker (AV-400) 400 MHz spectrometer in deuterated solvents. Mass spectra were obtained using 6538-UHD Accurate mass Q-TOF LC-MS instrument. For optical density measurement during bacteriology experiments, Tecan Infinite Pro series M200 Microplate Reader was used. Bacterial strains, A. baumannii (R674), P. aeruginosa (R590), E. coli (R3336) and K. pneumoniae (R3934) were used for the studies.
(§2) The combination efficacy with antibiotics from different classes and individual antibacterial activity of the synthesized adjuvants was evaluated against the above mentioned MDR and NDM-1 strains of Gram-negative bacteria. All the bacteria were grown in peptone. The bacterial samples were freeze dried and stored at −80° C. 3 μl of these stocks were added to 3 mL of peptone and the culture was grown for 6 h at 37° C. prior to the experiments.
(§3) All synthesized compounds were assayed for their antibacterial activity in combination with antibiotics in a modified chequerboard micro-dilution broth format. Stock solutions were made by serially diluting the compounds using autoclaved millipore water. The bacterial freeze dried stock samples were stored at −80° C. About 3 μL of these stocks were added to about 3 mL of the respective broth and the culture was grown for about 6 h at about 37° C. with prior to the experiments. This 6 h grown culture gives about 10^8 cfu/mL in case of A. baumannii R674, P. aeruginosa R590, E. coli R3336 and K. pneumoniae R3934 which were determined by spread plating method. This 6 h grown culture was diluted to give effective cell concentration of 10^5 cfu/mL, and then used for the chequerboard assay. Adjuvants and antibiotics were serially diluted in two-fold, in sterile millipore water. 25 μL of these serial dilutions of the antibiotics and 25 μL of compounds were added to the wells of 96 well plate followed by the addition of about 150 μL of bacterial solution (˜10^5 cfu/mL). The plates were then incubated at about 37° C., 150 rpm in the incubator and O.D at 600 nm was recorded at 24 h using TECAN (Infinite series, M200 pro) Plate Reader. The wells with similar OD as the media control contained the required concentration of the antibiotic and adjuvant for antibacterial efficacy. The potentiation ability of the adjuvants was determined by calculating the potentiation factor and the Fractional Inhibitory concentration (FIC) index. Fractional Inhibitory Concentration (FIC) is expressed as, FIC=[X]/MICX, where [X] is the lowest inhibitory concentration of antibiotic in the presence of the adjuvant. Whereas FIC index is expressed as, FICI=FICantibiotic+FICadjuvant. The values of FIC index give an insight about the nature of the combination. Potentiation factor which means fold-reduction in the MIC of the antibiotic, when used in combination with the adjuvant was also determined. Potentiation factor=[Minimum inhibitory concentration (MIC) of antibiotic in absence of adjuvant]/[MIC of antibiotic in presence of adjuvant]. […] The combination efficacies of adjuvants with various antibiotics are furnished in Table 1. It should be noted that various other resistant strains of bacteria (Gram-positive and Gram-negative) can be tested with a number of other antibiotics to check the potentiation capacity of the adjuvants.

K. pneumoniae R3934 [2] = assay: as above
Experimental: as §1, §2, §3

P. aeruginosa R590 [3] = assay: as above; settings: P. aeruginosa R590
Experimental: as §1, §2, §3

E. coli R3336 [4] = assay: as above
Experimental: as §1, §2, §3

human RBCs = assay: Haemolytic activity; settings: concentration at which 50% of human blood cells are lysed; 1 h at 37° C.
Experimental: Erythrocytes were isolated from freshly drawn, heparanized human blood and re-suspended to 5 vol % in PBS (pH 7.4). In a 96-well microtiter plate, 150 μl of erythrocyte suspension was added to 50 μl of serially diluted compound. Two controls were made, one without compound and other with 50 μl of 1 vol % solution of Triton X-100. The plate was incubated for 1 h at 37° C. The plate was then centrifuged at 3,500 rpm for 5 min, 100 μl of the supernatant from each well was transferred to a fresh 96-well microtiter plate, and A540 was measured. Percentage of hemolysis was determined as (A−A0)/(Atotal−A0)×100, where A is the absorbance of the test well, A0 the absorbance of the negative controls (without compound), and Atotal the absorbance of 100% hemolysis wells (with Triton X-100), all at 540 nm.
Toxicity studies of the compounds were done on freshly drawn human RBCs. Toxicity of the compounds were defined by their HC50 values (Table 2), i.e. the concentration of compound at which 50% of the blood cells are lysed.

A. baumannii R674 [5] = assay: Individual antibacterial activity (MIC) of adjuvants; settings: Acinetobacter baumannii; adjuvant alone; A. baumannii R674; read-out: MIC against clinical isolates of bacteria
Experimental: as §2, §3

K. pneumoniae R3934 [6] = assay: as above; settings: Klebsiella pneumoniae; adjuvant alone; K. pneumoniae R3934; read-out: MIC against clinical isolates of bacteria
Experimental: as §2, §3

P. aeruginosa R590 [7] = assay: as above; settings: Pseudomonas aeruginosa; adjuvant alone; P. aeruginosa R590; read-out: MIC against clinical isolates of bacteria
Experimental: as §2, §3

E. coli R3336 [8] = assay: as above; settings: Escherichia coli, R3336, read-out: MIC against clinical isolates of bacteria
Experimental: as §2, §3

Compound: NCCCC[C@H](N)C(=O)NCCCCCCN(CCCCCCNC(=O)[C@@H](N)CCCCN)CC(=O)NC1C2CC3CC(C2)CC1C3 (stereo partly shown) [Compound 15, N-(adamantan-2-yl)-2-[N′,N′-{bis-(6-^LLys) amido)hexyl} amino] ethanamide pentakistrifluoroacetate]
- MIC of antibiotic in presence of adjuvant (A. baumannii R674 [1]; antibiotic Ampicillin): No potentiation
- FICI (A. baumannii R674 [1]; antibiotic Ciprofloxacin): 1.25
- MIC of antibiotic in presence of adjuvant (A. baumannii R674 [1]; antibiotic Ciprofloxacin): 64 µg/mL
- Potentiation factor (A. baumannii R674 [1]; antibiotic Ciprofloxacin): 4
- FICI (A. baumannii R674 [1]; antibiotic Erythromycin): 0.1875
- MIC of antibiotic in presence of adjuvant (A. baumannii R674 [1]; antibiotic Erythromycin): 32 µg/mL
- Potentiation factor (A. baumannii R674 [1]; antibiotic Erythromycin): 16
- FICI (A. baumannii R674 [1]; antibiotic Fusidic acid): <0.07
- MIC of antibiotic in presence of adjuvant (A. baumannii R674 [1]; antibiotic Fusidic acid): <0.5 µg/mL
- Potentiation factor (A. baumannii R674 [1]; antibiotic Fusidic acid): >128
- FICI (A. baumannii R674 [1]; antibiotic Linezolid): 1.125
- Potentiation factor (A. baumannii R674 [1]; antibiotic Linezolid): 8
- FICI (A. baumannii R674 [1]; antibiotic Minocycline): 0.5625
- MIC of antibiotic in presence of adjuvant (A. baumannii R674 [1]; antibiotic Minocycline): 0.5 µg/mL
- Potentiation factor (A. baumannii R674 [1]; antibiotic Minocycline): 16
- FICI (A. baumannii R674 [1]; antibiotic Rifampicin): 0.1289
- MIC of antibiotic in presence of adjuvant (A. baumannii R674 [1]; antibiotic Rifampicin): 0.25 µg/mL
- Potentiation factor (A. baumannii R674 [1]; antibiotic Rifampicin): 256
- MIC of antibiotic in presence of adjuvant (A. baumannii R674 [1]; antibiotic Streptomycin): No potentiation
- FICI (A. baumannii R674 [1]; antibiotic Tetracycline): 0.5156
- MIC of antibiotic in presence of adjuvant (A. baumannii R674 [1]; antibiotic Tetracycline): 2 µg/mL
- Potentiation factor (A. baumannii R674 [1]; antibiotic Tetracycline): 64
- FICI (A. baumannii R674 [1]; antibiotic Vancomycin): 0.5625
- Potentiation factor (A. baumannii R674 [1]; antibiotic Vancomycin): 2
- FICI (K. pneumoniae R3934 [2]; antibiotic Fusidic acid): <0.0781
- MIC of antibiotic in presence of adjuvant (K. pneumoniae R3934 [2]; antibiotic Fusidic acid): 8 µg/mL
- Potentiation factor (K. pneumoniae R3934 [2]; antibiotic Fusidic acid): 64
- MIC of antibiotic in presence of adjuvant (K. pneumoniae R3934 [2]; antibiotic Linezolid): No potentiation
- FICI (K. pneumoniae R3934 [2]; antibiotic Minocycline): <0.07
- MIC of antibiotic in presence of adjuvant (K. pneumoniae R3934 [2]; antibiotic Minocycline): 0.5 µg/mL
- Potentiation factor (K. pneumoniae R3934 [2]; antibiotic Minocycline): 128
- FICI (K. pneumoniae R3934 [2]; antibiotic Rifampicin): <0.1289
- MIC of antibiotic in presence of adjuvant (K. pneumoniae R3934 [2]; antibiotic Rifampicin): 2 µg/mL
- Potentiation factor (K. pneumoniae R3934 [2]; antibiotic Rifampicin): 256
- Potentiation factor (P. aeruginosa R590 [3]; antibiotic Chloramphenicol): 4
- FICI (P. aeruginosa R590 [3]; antibiotic Colistin): 0.3125
- MIC of antibiotic in presence of adjuvant (P. aeruginosa R590 [3]; antibiotic Colistin): 0.25 µg/mL
- Potentiation factor (P. aeruginosa R590 [3]; antibiotic Colistin): 4
- MIC of antibiotic in presence of adjuvant (P. aeruginosa R590 [3]; antibiotic Daptomycin): No potentiation
- FICI (P. aeruginosa R590 [3]; antibiotic Fusidic acid): <0.1289
- MIC of antibiotic in presence of adjuvant (P. aeruginosa R590 [3]; antibiotic Fusidic acid): <0.25 µg/mL
- Potentiation factor (P. aeruginosa R590 [3]; antibiotic Fusidic acid): >256
- FICI (P. aeruginosa R590 [3]; antibiotic Linezolid): 0.2812
- Potentiation factor (P. aeruginosa R590 [3]; antibiotic Linezolid): 4
- FICI (P. aeruginosa R590 [3]; antibiotic Minocycline): 0.5
- MIC of antibiotic in presence of adjuvant (P. aeruginosa R590 [3]; antibiotic Minocycline): 2 µg/mL
- Potentiation factor (P. aeruginosa R590 [3]; antibiotic Minocycline): 4
- FICI (P. aeruginosa R590 [3]; antibiotic Rifampicin): <0.126
- MIC of antibiotic in presence of adjuvant (P. aeruginosa R590 [3]; antibiotic Rifampicin): <0.125 µg/mL
- Potentiation factor (P. aeruginosa R590 [3]; antibiotic Rifampicin): >1024
- FICI (P. aeruginosa R590 [3]; antibiotic Tetracycline): 0.5078
- MIC of antibiotic in presence of adjuvant (P. aeruginosa R590 [3]; antibiotic Tetracycline): 2 µg/mL
- Potentiation factor (P. aeruginosa R590 [3]; antibiotic Tetracycline): 128
- FICI (E. coli R3336 [4]; antibiotic Fusidic acid): <0.1875
- Potentiation factor (E. coli R3336 [4]; antibiotic Fusidic acid): >16
- MIC of antibiotic in presence of adjuvant (E. coli R3336 [4]; antibiotic Linezolid): No potentiation
- FICI (E. coli R3336 [4]; antibiotic Minocycline): <0.0469
- MIC of antibiotic in presence of adjuvant (E. coli R3336 [4]; antibiotic Minocycline): 0.5 µg/mL
- Potentiation factor (E. coli R3336 [4]; antibiotic Minocycline): 64
- FICI (E. coli R3336 [4]; antibiotic Rifampicin): <0.0469
- MIC of antibiotic in presence of adjuvant (E. coli R3336 [4]; antibiotic Rifampicin): 16 µg/mL
- Potentiation factor (E. coli R3336 [4]; antibiotic Rifampicin): 32
- HC50 (human RBCs): >1024 µg/mL
- MIC (A. baumannii R674 [5]): 128 µg/mL
- MIC (K. pneumoniae R3934 [6]): > 512 µg/mL
- MIC (P. aeruginosa R590 [7]): 64 µg/mL
- MIC (E. coli R3336 [8]): > 512 µg/mL
